Measurements published in patent publication US9931300B2, “Methods for superdisintegrant-based composite particles for dispersion and dissolution of active pharmaceutical agents” (New Jersey Institute of Technology, priority 2012, dated 2018).

Tests used:
[1] = cited from earlier work
[2] = Particle size of as-received / dry powders (Rodos/Helos laser diffraction where stated); format: physicochemical; settings: as-received or dry
Description: The particle sizes of GF suspensions after milling in Runs 2, 3, and 5 (about 10% GF/about 2.5% HPC) indicate that the milling results were fairly reproducible. […] The dry particle size of CCS, as measured by Rodos/Helos laser diffraction system, was D10: 12.90 μm, D50: 28.55 μm, and D90: 66.09 The particle size increased to D10:13.74 μm, D50: 63.68 μm and D90: 96.28 μm after about 3 h swelling in de-ionized water as measured by Coulter LS13320 with the liquid module.
The suspensions were coated onto Pharmatose® carrier particles in the fluidized bed processor. The particle size statistics of Pharmatose® as measured by Rodos is D10: 58 μm, D50: 116 μm and D90: 206 μm. The median particle size of Pharmatose® increased from about 116 μm to about 120-150 μm due to coating and some agglomeration.

[3] = USP II dissolution test of NCMPs in deionized water; format: physicochemical
Description: Dissolution tests were carried out in a standard USP II apparatus with about 50 rpm paddle speed. A sample of NCMPs (n=6) containing about 8.9 mg GF were dissolved in about 1000 ml deionized water at about 37° C., and samples taken from the vessel were syringe-filtered (0.1 μm filter) and assayed via UV spectroscopy. Unlike in the re-dispersion test, the use of a large amount of water ensures substantially full solubilization of the drug in this test.

| SMILES | solubility in methanol ([1]; methanol, about 25° C.) | particle size D10 of as-received / dry powder [2] | particle size D50 of as-received / dry powder [2] | particle size D90 of as-received / dry powder [2] | GF dissolved in about 60 min [3] | solubility in water ([1]; water) |
| --- | --- | --- | --- | --- | --- | --- |
| COC1=CC(=O)C[C@@H](C)[C@]12Oc1c(Cl)c(OC)cc(OC)c1C2=O [GF, griseofulvin] | about 30 mg/ml | 3.9 μm | 16.0 μm | 47.4 μm | about 14% | – |
| OC[C@@H](O)[C@@H](O)[C@H](O)[C@H](O)CO [Mannitol] | – | – | – | – | – | about 180 g/L |
